{"source": "patent US11807625B2", "about": "“Capsid inhibitors for the prevention of HIV” (Gilead Sciences, Inc., priority 2019, dated 2023)", "tested_on": "rhesus plasma protein", "test": "Competitive equilibrium dialysis (EQDS) assay, rhesus plasma protein binding", "format": "in vitro ADME", "settings": "EC95 adjusted for rhesus plasma protein binding (competitive equilibrium dialysis)", "experimental": "The mean 95% effective concentration (EC95) of 1.91±0.16 nM for a compound of Formula (Ib) (“Compound Ib”) was determined using a 7-day antiviral assay (p24 ELISA endpoint) in rhesus peripheral blood mononuclear cells (PBMCs) infected with SHIV-162P3. A competitive equilibrium dialysis assay was used to quantify rhesus plasma protein binding to Compound Ib, resulting in an inhibitory quotient (IQ) equal to Compound Ib plasma concentrations divided by a mean rhesus plasma protein-binding-adjusted EC95 (paEC95) value of 30.2±2.5 nM.\nEquilibrium dialysis shift (EQDS) assay details: Rhesus plasma protein binding to a compound of Formula (Ib) (“Compound Ib”) was determined by competitive equilibrium dialysis. Rhesus plasma (10%) was spiked with Compound Ib (2 μM) and blank RPMI cell culture medium containing 2% fetal bovine serum (CCM) were placed into opposite sides of assembled dialysis cells, and incubations were performed in triplicate. After a 24-h equilibration period at 37° C., samples were corrected for the matrix effect, quenched, and quantified by liquid chromatography tandem mass spectrometry (LC-MS/MS) with electrospray ionization in positive mode and multiple-reaction monitoring (MRM). The fold change value in 100% rhesus plasma was then calculated using the plasma/CCM ratio after correcting for the sample dilution factor and the percent free fraction in the matrix."}
{"smiles": "CC(C)(C#Cc1ccc(-c2ccc(Cl)c3c(NS(=O)(=O)C4CC4)nn(CC(F)F)c23)c([C@H](Cc2cc(F)cc(F)c2)NC(=O)Cn2nc(C(F)F)c3c2C(F)(F)[C@@H]2C[C@H]32)n1)S(C)(=O)=O", "note": "[Compound Ib, N—((S)-1-(3-(4-chloro-3-(cyclopropanesulfonamido)-1-(2,2-difluoroethyl)-1H-indazol-7-yl)-6-(3-methyl-3-(methylsulfonyl)but-1-yn-1-yl)pyridin-2-yl)-2-(3,5-difluorophenyl)ethyl)-2-((3b S,4aR)-3-(difluoromethyl)-5,5-difluoro-3b,4,4a,5-tetrahydro-1H-cyclopropa[3,4]cyclopenta[1,2-c]pyrazol-1-yl)acetamide]", "values": [{"measurement": "mean rhesus plasma protein-binding-adjusted EC95 (paEC95)", "value": "30.2 ± 2.5", "unit": "nM"}]}
